Experimental data taken from ChEMBL document CHEMBL5380795, “Design, Synthesis, and Bioactivity Investigation of Cyclic Lipopeptide Antibiotics Containing Eight to Nine Amino Acids” (J Med Chem, 2023).
In brackets after ≈: the same amount, converted by molar mass.

Columns and labels:
Pseudomonas aeruginosa [1] = assay: Antibacterial activity against carbapenem resistant Pseudomonas aeruginosa clinical isolate 19-3 assessed as inhibition of bacterial growth incubated for 18 to 24 hrs by broth microdilution method; type: functional; details: time 18-24 hrs
Acinetobacter baumannii [2] = assay: Antibacterial activity against carbapenem resistant Acinetobacter baumannii clinical isolate 19-8 assessed as inhibition of bacterial growth incubated for 18 to 24 hrs by broth microdilution method; type: functional; details: time 18-24 hrs
Pseudomonas aeruginosa [3] = assay: Antibacterial activity against Pseudomonas aeruginosa clinical isolate 19-1 assessed as inhibition of bacterial growth incubated for 18 to 24 hrs by broth microdilution method; type: functional; details: time 18-24 hrs
Klebsiella pneumoniae [4] = assay: Antibacterial activity against carbapenem resistant Klebsiella pneumoniae clinical isolate 19-15 assessed as inhibition of bacterial growth incubated for 18 to 24 hrs by broth microdilution method; type: functional; details: time 18-24 hrs
[5] = Cytotoxicity against human HK-2 cells assessed as inhibition of cell growth incubated for 72 hrs by CCK-8 assay; type: toxicity, cell-based
[6] = Selectivity index, ratio of IC50 for cytotoxicity against human HK-2 cells to MIC for antibacterial activity against Escherichia coli ATCC BAA-2523; type: toxicity, cell-based
Klebsiella pneumoniae [7] = assay: Antibacterial activity against carbapenem resistant Klebsiella pneumoniae clinical isolate 19-17 assessed as inhibition of bacterial growth incubated for 18 to 24 hrs by broth microdilution method; type: functional; details: time 18-24 hrs
Escherichia coli [8] = assay: Antibacterial activity against Escherichia coli NCTC 13353 assessed as inhibition of bacterial growth incubated for 18 to 24 hrs by broth microdilution method; type: functional; details: time 18-24 hrs
Escherichia coli [9] = assay: Antibacterial activity against KPC producing Escherichia coli ATCC BAA-2340 assessed as inhibition of bacterial growth incubated for 18 to 24 hrs by broth microdilution method; type: functional; details: time 18-24 hrs
Pseudomonas aeruginosa [10] = assay: Antibacterial activity against carbapenem resistant Pseudomonas aeruginosa clinical isolate 17-1 assessed as inhibition of bacterial growth incubated for 18 to 24 hrs by broth microdilution method; type: functional; details: time 18-24 hrs
Acinetobacter baumannii [11] = assay: Antibacterial activity against oxacillinase-27 producing Acinetobacter baumannii NCTC 13304 assessed as inhibition of bacterial growth incubated for 18 to 24 hrs by broth microdilution method; type: functional; details: time 18-24 hrs
Escherichia coli [12] = assay: Antibacterial activity against Escherichia coli ATCC BAA-2523 assessed as inhibition of bacterial growth incubated for 18 to 24 hrs by broth microdilution method; type: functional; details: time 18-24 hrs
Staphylococcus aureus [13] = assay: Antibacterial activity against methicillin resistant Staphylococcus aureus ATCC 33591 assessed as inhibition of bacterial growth incubated for 18 to 24 hrs by broth microdilution method; type: functional; details: time 18-24 hrs
[14] = tested on: Staphylococcus epidermidis; assay: Antibacterial activity against methicillin resistant Staphylococcus epidermidis clinical isolate 19-5 assessed as inhibition of bacterial growth incubated for 18 to 24 hrs by broth microdilution method; type: functional; details: time 18-24 hrs
Escherichia coli [15] = assay: Antibacterial activity against Escherichia coli clinical isolate 19-2 assessed as inhibition of bacterial growth incubated for 18 to 24 hrs by broth microdilution method; type: functional; details: time 18-24 hrs
[16] = tested on: Staphylococcus epidermidis; assay: Antibacterial activity against methicillin resistant Staphylococcus epidermidis clinical isolate 19-6 assessed as inhibition of bacterial growth incubated for 18 to 24 hrs by broth microdilution method; type: functional; details: time 18-24 hrs
Staphylococcus aureus [17] = assay: Antibacterial activity against Staphylococcus aureus ATCC 29213 assessed as inhibition of bacterial growth incubated for 18 to 24 hrs by broth microdilution method; type: functional; details: time 18-24 hrs
Klebsiella pneumoniae [18] = assay: Antibacterial activity against KPC producing Klebsiella pneumoniae ATCC BAA-1705 assessed as inhibition of bacterial growth incubated for 18 to 24 hrs by broth microdilution method; type: functional; details: time 18-24 hrs
Pseudomonas aeruginosa [19] = assay: Antibacterial activity against Pseudomonas aeruginosa ATCC 27853 assessed as inhibition of bacterial growth incubated for 18 to 24 hrs by broth microdilution method; type: functional; details: time 18-24 hrs

Row | SMILES | MIC (Pseudomonas aeruginosa [1]) | MIC (Acinetobacter baumannii [2]) | MIC (Pseudomonas aeruginosa [3]) | MIC (Klebsiella pneumoniae [4]) | IC50 at 72 h [5] | selectivity ratio [6] | MIC (Klebsiella pneumoniae [7]) | MIC (Escherichia coli [8]) | MIC (Escherichia coli [9]) | MIC (Pseudomonas aeruginosa [10]) | MIC (Acinetobacter baumannii [11]) | MIC (Escherichia coli [12]) | MIC (Staphylococcus aureus [13]) | MIC [14] | MIC (Escherichia coli [15]) | MIC [16] | MIC (Staphylococcus aureus [17]) | MIC (Klebsiella pneumoniae [18]) | MIC (Pseudomonas aeruginosa [19])
1 | CCCCCCCCCC(=O)N[C@H](CCN)C(=O)N[C@H]1CCNC(=O)[C@H]([C@@H](C)O)NC(=O)[C@H](CCN)NC(=O)[C@H](CCN)NC(=O)[C@H](CC(C)C)NC(=O)[C@@H](Cc2ccc(C(C)(C)C)cc2)NC(=O)[C@H](CCN)NC1=O | 2 µg/mL (≈ 1.86 µM) | 16 µg/mL (≈ 14.9 µM) | 4 µg/mL (≈ 3.73 µM) | 4 µg/mL (≈ 3.73 µM) | 15.9 µg/mL (≈ 14.8 µM) | 15.9 | 2 µg/mL (≈ 1.86 µM) | 4 µg/mL (≈ 3.73 µM) | 2 µg/mL (≈ 1.86 µM) | 4 µg/mL (≈ 3.73 µM) | 16 µg/mL (≈ 14.9 µM) | 1 µg/mL (≈ 0.932 µM) | 4 µg/mL (≈ 3.73 µM) | 0.5 µg/mL (≈ 0.466 µM) | 2 µg/mL (≈ 1.86 µM) | 2 µg/mL (≈ 1.86 µM) | 4 µg/mL (≈ 3.73 µM) | 2 µg/mL (≈ 1.86 µM) | 2 µg/mL (≈ 1.86 µM)
2 | CCCCCCC[C@@H](O)CC(=O)N[C@H](CO)C(=O)N[C@H](CCN)C(=O)N[C@H]1CCNC(=O)[C@H](CC(C)C)NC(=O)[C@H](CCN)NC(=O)[C@H](CCN)NC(=O)[C@H](Cc2ccccc2)NC(=O)[C@@H](CC(C)C)NC(=O)[C@H](CCN)NC1=O | 2 µg/mL (≈ 1.77 µM) | 16 µg/mL (≈ 14.1 µM) | 8 µg/mL (≈ 7.07 µM) | 4 µg/mL (≈ 3.54 µM) | 55.4 µg/mL (≈ 49 µM) | 13.9 | 8 µg/mL (≈ 7.07 µM) | 16 µg/mL (≈ 14.1 µM) | 4 µg/mL (≈ 3.54 µM) | 2 µg/mL (≈ 1.77 µM) | 8 µg/mL (≈ 7.07 µM) | 4 µg/mL (≈ 3.54 µM) | 64 µg/mL (≈ 56.6 µM) | 2 µg/mL (≈ 1.77 µM) | 16 µg/mL (≈ 14.1 µM) | 8 µg/mL (≈ 7.07 µM) | 64 µg/mL (≈ 56.6 µM) | 2 µg/mL (≈ 1.77 µM) | 2 µg/mL (≈ 1.77 µM)
3 | CCCCCCCCCC(=O)N[C@H](CCN)C(=O)N[C@H]1CCNC(=O)[C@H]([C@@H](C)O)NC(=O)[C@H](CCN)NC(=O)[C@H](CCN)NC(=O)[C@H](CC(C)C)NC(=O)[C@@H](CC(C)C)NC(=O)[C@H](CCCCN)NC1=O | > 64 µg/mL | > 64 µg/mL | > 64 µg/mL | > 64 µg/mL | 196 µg/mL (≈ 193 µM) | < 3.1 | > 64 µg/mL | > 64 µg/mL | > 64 µg/mL | > 64 µg/mL | > 64 µg/mL | > 64 µg/mL | > 64 µg/mL | 8 µg/mL (≈ 7.92 µM) | > 64 µg/mL | 32 µg/mL (≈ 31.7 µM) | > 64 µg/mL | > 64 µg/mL | > 64 µg/mL
